Experimental data taken from patent US12391674B2, “Heterocyclic compounds for the treatment of epilepsy” (OTSUKA PHARMACEUTICAL CO., LTD., priority 2018, dated 2025).
Counter-ions that a name gives are not always drawn.

Key:
DBA/2 mice = assay: Audiogenic seizure model; assay type: in vivo; conditions: Mus musculus, DBA/2 mice, oral, auditory stimulation 1 hour after administration, read-out: Seizure suppression
Description: The animal model used in this test is a phenotype model for partial seizure (including secondary generalized seizure) and generalized tonic-clonic seizure, and has high clinical predictability. This test was performed in accordance with the report of De Sarro et al (Br J Pharmacol. 1988 February; 93 (2): 247-56. Anticonvulsant effects of some calcium entry blockers in DBA/2 mice. De Sarro G B, Meldrum B S, Nistico G.).
In this test example, the example compounds shown in Tables 3-1 to 3-3 below were used as test compounds.
The test compounds were suspended in 5% gum arabic/distilled water (w/v), and administered by forced oral administration to male and female DBA/2 mice (Japan SLC, Inc., 3 weeks old, 8 per group) at a dose of 30 mg/kg. After one hour of the oral administration of the test compound, each mouse was placed in a transparent acrylic cylinder 30 cm high and 23 cm in diameter, and 30 seconds were allowed for habituation. Then, they were exposed to auditory stimulation (12.6 kHz, 100-110 dB) for 1 minute or until a tonic seizure occurred.
The seizure response was assessed using the following scale, 0: no seizure, 1: wild running, 2: clonic seizure, 3: tonic seizure and 4: respiratory arrest. The maximum response was recorded as the seizure severity score.
The seizure suppression rate for each compound administration group was calculated according to the following formula.
Here, a rate of seizure suppression of 90% or more was expressed as “A”, a rate of seizure suppression of 70% or more and less than 90% was expressed as “B”, and a rate of seizure suppression of 50% or more and less than 70% was expressed as “C”.

ICR mice = assay: Rotarod test (motor coordination); assay type: in vivo, mouse; conditions: oral, rotarod 1 hour after administration
Description: This test is performed to evaluate the effect of the compound on the motor coordination. In this test example, the example compounds shown in Table 4 below were used as test compounds. Male ICR mice (Japan SLC, Inc., 5-6 weeks, 8 per group) were trained to remain on a fixed speed (15 rpm) rotating rod of rotarod apparatus (Muromachi Kikai Co., Ltd.) for 2 minutes. […] After 1 hour of oral administration, the mice were again placed on the rod accelerated from 4 rpm to 40 rpm over 5 minutes and the latency to fall off the rod was recorded for 200 seconds. The falling latency of the compound administration group was calculated as a relative value relative to the average value of the falling latency in the solvent administration group. Here, a coordination disorder of 25% or less was expressed as “A”, and a coordination disorder of more than 25% and 50% or less was expressed as “B”.

## COc1ccc(-c2cnc(Oc3ccccc3)nc2)nn1 [Example 1, 3-Methoxy-6-(2-Phenoxypyrimidin-5-Yl)Pyridazine]
DBA/2 mice
  inhibition in vivo at 5 mg/kg: > 90%
ICR mice; dose 5 mg/kg
  Motor dysfunction: A (a coordination disorder of 25% or less)

## Cc1ccc(-c2cnc(Oc3ccccc3)nc2)nn1 [Example 2]
DBA/2 mice
  inhibition in vivo at 30 mg/kg: > 90%
ICR mice; dose 10 mg/kg
  Motor dysfunction: A (a coordination disorder of 25% or less)

## COc1ccc(-c2cnc(Oc3ccccc3F)nc2)nn1 [Example 3]
DBA/2 mice
  inhibition in vivo at 5 mg/kg: > 90%
ICR mice; dose 10 mg/kg
  Motor dysfunction: A (a coordination disorder of 25% or less)

## COc1ccc(-c2cnc(Oc3cccc(F)c3)nc2)nn1 [Example 4, 3-(2-(3-Fluorophenoxy)Pyrimidin-5-Yl)-6-Methoxypyridazine]
DBA/2 mice
  inhibition in vivo at 5 mg/kg: > 90%
ICR mice; dose 5 mg/kg
  Motor dysfunction: A (a coordination disorder of 25% or less)

## c1ccc(Oc2ncc(-c3ccc4scnc4c3)cn2)cc1 [Example 241]
DBA/2 mice
  inhibition in vivo at 30 mg/kg: > 90%

## c1ccc(Oc2ncc(-c3ccc4cccnc4c3)cn2)cc1 [Example 244]
DBA/2 mice
  inhibition in vivo at 30 mg/kg: > 90%

## O=C1CCc2ccc(-c3cnc(Oc4ccccc4)nc3)cc2N1 [Example 246]
DBA/2 mice
  inhibition in vivo at 30 mg/kg: > 90%

## O=C1NCCc2cc(-c3cnc(Oc4ccccc4)nc3)ccc21 [Example 247]
DBA/2 mice
  inhibition in vivo at 30 mg/kg: > 90%

## c1ccc(Oc2ncc(-c3cccc4ccncc34)cn2)cc1 [Example 249]
DBA/2 mice
  inhibition in vivo at 30 mg/kg: > 90%

## c1ccc(Oc2ncc(-c3ccc4ncccc4c3)cn2)cc1 [Example 250]
DBA/2 mice
  inhibition in vivo at 30 mg/kg: > 90%

## c1ccc(Oc2ncc(-c3ccc4cnccc4c3)cn2)cc1 [Example 251]
DBA/2 mice
  inhibition in vivo at 30 mg/kg: > 90%

## c1ccc(Oc2ncc(-c3ccc4ccncc4c3)cn2)cc1 [Example 252]
DBA/2 mice
  inhibition in vivo at 30 mg/kg: > 90%

## c1ccc(Oc2ncc(-c3ccc4nccnc4c3)cn2)cc1 [Example 253]
DBA/2 mice
  inhibition in vivo at 30 mg/kg: > 90%

## O=c1[nH]cnc2ccc(-c3cnc(Oc4ccccc4)nc3)cc12 [Example 254]
DBA/2 mice
  inhibition in vivo at 30 mg/kg: > 90%

## c1ccc(Oc2ncc(-c3ccc4ncncc4c3)cn2)cc1 [Example 255]
DBA/2 mice
  inhibition in vivo at 30 mg/kg: > 90%

## c1ccc(Oc2ncc(-c3ccc4[nH]cnc4c3)cn2)cc1 [Example 257, 5-(2-Phenoxypyrimidin-5-Yl)-1H-Benzo[d]Imidazole Oxalate]
DBA/2 mice
  inhibition in vivo at 30 mg/kg: > 90%

## Cn1ccc2cc(-c3cnc(Oc4ccccc4)nc3)ccc21 [Example 260]
DBA/2 mice
  inhibition in vivo at 30 mg/kg: > 90%

## Nc1nccc2c(-c3cnc(Oc4ccccc4)nc3)cccc12 [Example 261]
DBA/2 mice
  inhibition in vivo at 30 mg/kg: > 90%

## Cn1ccc2c(-c3cnc(Oc4ccccc4)nc3)cccc21 [Example 263]
DBA/2 mice
  inhibition in vivo at 30 mg/kg: > 90%

## O=C1Cc2cc(-c3cnc(Oc4ccccc4F)nc3)ccc2N1 [Example 264]
DBA/2 mice
  inhibition in vivo at 5 mg/kg: > 90%
  inhibition in vivo at 30 mg/kg: > 90%

## O=C1Cc2cc(-c3cnc(Oc4cccc(F)c4)nc3)ccc2N1 [Example 265]
DBA/2 mice
  inhibition in vivo at 30 mg/kg: > 90%

## O=C1Cc2cc(-c3cnc(Oc4ccc(F)cc4)nc3)ccc2N1 [Example 266]
DBA/2 mice
  inhibition in vivo at 30 mg/kg: > 90%

## Clc1cc2c(-c3cnc(Oc4ccccc4)nc3)cccc2cn1 [Example 268]
DBA/2 mice
  inhibition in vivo at 30 mg/kg: > 90%

## O=C1Cc2ccc(-c3cnc(Oc4ccccc4F)nc3)cc2N1 [Example 269]
DBA/2 mice
  inhibition in vivo at 30 mg/kg: > 90%

## O=C1CCc2cc(-c3cnc(Oc4ccccc4F)nc3)ccc2N1 [Example 270]
DBA/2 mice
  inhibition in vivo at 30 mg/kg: > 90%

## O=C1Nc2ccc(-c3cnc(Oc4ccccc4)nc3)cc2C1=O [Example 271]
DBA/2 mice
  inhibition in vivo at 30 mg/kg: > 90%

## O=C1Cc2c(cccc2-c2cnc(Oc3ccccc3)nc2)N1 [Example 272]
DBA/2 mice
  inhibition in vivo at 30 mg/kg: > 90%

## COc1nc(Oc2ccccc2)ncc1-c1cccc2c1CC(=O)N2 [Example 273]
DBA/2 mice
  inhibition in vivo at 30 mg/kg: > 90%

## COc1nc(Oc2ccccc2)ncc1-c1ccc2c(c1)CC(=O)N2 [Example 274]
DBA/2 mice
  inhibition in vivo at 30 mg/kg: > 90%

## Cn1ncc2ccc(-c3cnc(Oc4ccccc4F)nc3)nc21 [Example 276]
DBA/2 mice
  inhibition in vivo at 30 mg/kg: > 90%

## Cn1ncc2ccc(-c3cnc(Oc4cccc(F)c4)nc3)nc21 [Example 277]
DBA/2 mice
  inhibition in vivo at 30 mg/kg: > 90%

## Cn1ncc2ccc(-c3cnc(Oc4ccc(F)cc4)nc3)nc21 [Example 278]
DBA/2 mice
  inhibition in vivo at 30 mg/kg: > 90%

## Fc1ccccc1Oc1ncc(-c2ccc3nnc(C(F)(F)F)n3c2)cn1 [Example 280]
DBA/2 mice
  inhibition in vivo at 30 mg/kg: > 90%

## Fc1cccc(Oc2ncc(-c3ccc4nnc(C(F)(F)F)n4c3)cn2)c1 [Example 281]
DBA/2 mice
  inhibition in vivo at 30 mg/kg: > 90%

## Fc1ccc(Oc2ncc(-c3ccc4nnc(C(F)(F)F)n4c3)cn2)cc1 [Example 282]
DBA/2 mice
  inhibition in vivo at 30 mg/kg: > 90%

## Fc1ccccc1Oc1ncc(-c2ccc3cnc(C(F)(F)F)n3c2)cn1 [Example 286]
DBA/2 mice
  inhibition in vivo at 30 mg/kg: > 90%

## Fc1cccc(Oc2ncc(-c3ccc4cnc(C(F)(F)F)n4c3)cn2)c1 [Example 287]
DBA/2 mice
  inhibition in vivo at 30 mg/kg: > 90%

## Fc1ccc(Oc2ncc(-c3ccc4cnc(C(F)(F)F)n4c3)cn2)cc1 [Example 288]
DBA/2 mice
  inhibition in vivo at 30 mg/kg: > 90%

## Fc1ccccc1Oc1ncc(-c2ccc3nncn3n2)cn1 [Example 290]
DBA/2 mice
  inhibition in vivo at 30 mg/kg: > 90%

## Fc1cccc(Oc2ncc(-c3ccc4nncn4n3)cn2)c1 [Example 291]
DBA/2 mice
  inhibition in vivo at 30 mg/kg: > 90%

## Fc1ccc(Oc2ncc(-c3ccc4nncn4n3)cn2)cc1 [Example 292]
DBA/2 mice
  inhibition in vivo at 30 mg/kg: > 90%

## FC(F)(F)c1cccc(-c2cnc(Oc3ccccc3)nc2)n1 [Example 301]
DBA/2 mice
  inhibition in vivo at 30 mg/kg: > 90%

## O=C1CCN(c2ccc(Oc3cccc(OC(F)(F)F)c3)cc2)C(=O)N1 [Example 306]
ICR mice; dose 30 mg/kg
  Motor dysfunction: A (a coordination disorder of 25% or less)

## CN1C(=O)CCN(c2ccc(Oc3cccc(F)c3)cc2)C1=O [Example 308, 1-(4-(3-Fluorophenoxy)Phenyl)-3-Methyldihydropyrimidine-2,4 (1H,3H)-Dione]
DBA/2 mice
  inhibition in vivo at 30 mg/kg: 50 to 70%

## O=C1CCN(c2ccc(Oc3ccc(F)cc3)cc2)C(=O)N1 [Example 310]
DBA/2 mice
  inhibition in vivo at 30 mg/kg: 50 to 70%

## O=C1CCN(c2cccc(Oc3ccc(F)cc3)c2)C(=O)N1 [Example 315]
DBA/2 mice
  inhibition in vivo at 30 mg/kg: 70 to 90%

## O=C1CCN(c2ccc(Oc3ccc(S(F)(F)(F)(F)F)cc3)cc2)C(=O)N1 [Example 317]
DBA/2 mice
  inhibition in vivo at 30 mg/kg: 50 to 70%

## O=C1CCN(c2ccc(Oc3cccnc3)cc2)C(=O)N1 [Example 318]
DBA/2 mice
  inhibition in vivo at 30 mg/kg: 50 to 70%

## O=C1CCN(c2ccc(OC(F)(F)F)cc2)C(=O)N1 [Example 319]
DBA/2 mice
  inhibition in vivo at 30 mg/kg: 50 to 70%

## O=C1CCN(c2ccc(Oc3cccc(F)n3)cc2)C(=O)N1 [Example 321, 1-[4-(6-Fluoropyridin-2-Yloxy)Phenyl]Dihydropyrimidine-2,4 (1H,3H)-Dione]
DBA/2 mice
  inhibition in vivo at 30 mg/kg: 50 to 70%

## O=c1ccn(-c2ccc(Oc3ccccc3)cc2)c(=O)[nH]1 [Example 322, 1-(4-Phenoxyphenyl)Pyrimidine-2,4 (1H,3H)-Dione]
DBA/2 mice
  inhibition in vivo at 30 mg/kg: 50 to 70%

## Cc1cc(Oc2ccccc2)ccc1N1CCC(=O)NC1=O [Example 324]
DBA/2 mice
  inhibition in vivo at 30 mg/kg: 50 to 70%

## Cc1nc(Oc2ccccc2)ccc1N1CCC(=O)NC1=O [Example 326]
DBA/2 mice
  inhibition in vivo at 30 mg/kg: 50 to 70%

## O=C1CCN(c2ccc(-c3ccccc3)cc2)C(=O)N1 [Example 327, 1-((1,1′-Biphenyl)-4-Yl)Dihydropyrimidine-2,4 (1H,3H)-Dione]
DBA/2 mice
  inhibition in vivo at 30 mg/kg: 50 to 70%

## O=C1CCN(c2cc(F)c(Oc3ccccc3)c(F)c2)C(=O)N1 [Example 330]
DBA/2 mice
  inhibition in vivo at 30 mg/kg: 50 to 70%

## Cc1cc(Oc2cccc(F)c2)ccc1N1CCC(=O)NC1=O [Example 334]
DBA/2 mice
  inhibition in vivo at 30 mg/kg: 50 to 70%

## Cc1cc(Oc2cccc(C(F)(F)F)c2)ccc1N1CCC(=O)NC1=O [Example 335]
DBA/2 mice
  inhibition in vivo at 30 mg/kg: 70 to 90%

## O=C1CCN(c2ccc(Cc3ccc(F)cc3)cc2)C(=O)N1 [Example 338]
DBA/2 mice
  inhibition in vivo at 30 mg/kg: 50 to 70%

## O=C1CCN(c2ccc(Cc3cccc(OC(F)(F)F)c3)cc2)C(=O)N1 [Example 339]
DBA/2 mice
  inhibition in vivo at 30 mg/kg: 70 to 90%

## O=C1CCN(c2ccc(Cc3cccc(C(F)(F)F)c3)cc2)C(=O)N1 [Example 341]
DBA/2 mice
  inhibition in vivo at 30 mg/kg: 50 to 70%

## O=C1CCN(c2ccc(Cc3ccc(C(F)(F)F)cc3)cc2)C(=O)N1 [Example 342]
DBA/2 mice
  inhibition in vivo at 30 mg/kg: 50 to 70%

## O=C1CCN(c2ccc(Oc3cc(F)cc(F)c3)cc2)C(=O)N1 [Example 344]
DBA/2 mice
  inhibition in vivo at 30 mg/kg: 50 to 70%

## O=C1CCN(c2ccc(Oc3cccc(F)c3)c3ccccc23)C(=O)N1 [Example 345]
DBA/2 mice
  inhibition in vivo at 30 mg/kg: 50 to 70%

## O=c1ccn(-c2ccc(Oc3ccccc3)nn2)c(=O)[nH]1 [Example 346, 1-(6-Phenoxypyridazin-3-Yl)Pyrimidine-2,4 (1H,3H)-Dione]
DBA/2 mice
  inhibition in vivo at 30 mg/kg: 50 to 70%
